Here are results for 30 compounds from PubChem BioAssay (NCI).

Holding throughout (test): NCI-60 cell line screen, 48 h
Assay [1] concerns A498 renal.
Assay [2] relates to CAKI-1 renal.
The test system of assay [3] is HCC-2998 colon.
Assay [4] concerns M14 melanoma.
For assay [5], the system named is MDA-MB-231 breast.
Assay [6] has as its system NCI-H522 lung.
In assay [7] the test system is SW-620 colon.
Assay [8] deals with TK-10 renal.
Assay [9] concerns UO-31 renal.
Assay [10] relates to T-47D breast.

Several values for one entry are separate records, joined by “and”; a condition that tells them apart may be missing. Identical values can stand only once.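 96-well plates; 48 h exposure; 5 concentrations. Endpoints by linear interpolation between flanking doses. Not reached: highest tested concentration assigned. GI50 is the concentration that inhibits growth by half. The concentration for full growth arrest is given as TGI.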 Bounds are passed on as bounds.

As to `O=c1ccc2nc(-c3ccccn3)nn(-c3ccccc3)c-2c1`, the GI50 in assay [1] was 14100 nM; in assay [2], 1490 nM; in assay [3], 4180 nM; in assay [4], 3390 nM; in assay [5], 1920 nM; in assay [6], 1490 nM. Moreover, the GI50 in assay [7] was 1770 nM; in assay [8], 1660 nM; in assay [9], 1460 nM. For the same compound, the TGI in [1] stood at 27.2 µM; in assay [2], 2.84 µM; in [3], 14.6 µM; in assay [4], 13.6 µM; in assay [5], 3.68 µM; in [6], 3.09 µM. For the same compound, the results for the TGI in assay [7], in assay [8] and in assay [9] were 3.66 µM, 3.12 µM and 2.82 µM, respectively.

With `C/C=C(/C)C(=O)O[C@H]1[C@H](O)CC(c2ccc3c(c2O)C(O)=C2C(=O)C4(OC)C(O)=C(C(N)=O)C(=O)[C@H](CC(=O)c5ccccc5O)C4CC2[C@@]3(C)OC)O[C@@H]1C` (stereo partly specified), the GI50 in assay [1] was 19.8 nM. The TGI was 2.21 µM and 1.49 µM in assay [1]; 1.25 µM and 1.05 µM in assay [3]; 2.13 µM and 1.34 µM in [4]; 1.35 µM in [5]; 1.21 µM and 1.83 µM in assay [6]; 1.13 µM in [7]. Also, the TGI in assay [10] was 8.06 µM; in assay [8], 6.19 µM and 4.65 µM; in [9], 2.34 µM.

For the compound `C=CCC(C(=O)Nc1cccc2[nH]cnc12)C(=O)OCC` (stereo unspecified), the TGI in [1], in assay [3], in assay [4], in assay [5], in [6] and in [7] was over 100 µM each time. Also, the TGI in [10], in assay [8] and in assay [9] was over 100 µM in each case.

Take `[N-]=[N+]=C(C(=O)N1CCCC1=O)S(=O)(=O)c1ccccc1`: the TGI in assay [3], in [4], in assay [5], in assay [6], in assay [7] and in assay [8] was over 100 µM in each case. In [9], the TGI was over 100 µM.

As for `CCN1CCC(O)(/C=C/c2ccc(OC)cc2)C(C(=O)/C=C/c2ccc(OC)cc2)C1` (stereo unspecified), the TGI in [1] turned out to be 27.2 µM; in assay [3], 29 µM; in assay [4], 34.1 µM; in assay [5], 17.5 µM; in assay [6], 26.1 µM; in [7] it was 17.9 µM. The TGI stood at 24.1 µM in assay [10], 26.7 µM in assay [8] and 21.5 µM in [9].

Regarding `CCOC(=O)C(NC(=O)OC(C)(C)C)C(=O)OCC`, the TGI in assay [2], in [3], in [6], in assay [7], in [10] and in assay [8] was over 100 µM throughout. Besides, in assay [9], the TGI was over 100 µM.

Turning to `COc1cc(Br)c(CC2C3=C(CCN2C(=O)C2CCC2)CC(=O)CC3)cc1O` (stereo unspecified), the TGI in assay [3] is 92.9 µM; in assay [4], over 100 µM; in assay [5] it was over 100 µM; in assay [6], 34.3 µM; in assay [7], over 100 µM; in assay [10], 71.8 µM. Besides, the TGI in [8] and in [9] was over 100 µM throughout.

For `Cc1ccc([N+](=O)[O-])c2c(NCC(O)CO)ccnc12` (stereo unspecified), the TGI in assay [2], in assay [3], in assay [4], in assay [7], in [10] and in assay [8] was over 100 µM each time. This compound also registered a TGI in assay [9] of over 100 µM.

As to `Oc1ccc(Cl)cc1C1=NC(/N=C\c2ccccc2)=NC(c2ccccc2)C1` (stereo unspecified), the TGI in assay [1] was over 100 µM; in assay [2] it was 28.1 µM; in [4] it was over 100 µM; in assay [5], over 100 µM; in [6], over 100 µM; in [7], over 100 µM. In addition, the TGI was over 100 µM in assay [10], over 100 µM in assay [8] and 74.1 µM in [9].

As to `CC(=O)Nc1ccccc1NC1CC(C)N(c2ccccc2)N1C(C)=O` (stereo unspecified), the TGI in [2], in assay [3], in [4], in assay [5], in assay [7] and in assay [10] was over 10 µM in each case. In addition, the TGI in assay [8] is over 10 µM.

For the compound `COC(=O)C1=C(C(=O)OC)SC2(S1)C(C(=O)OC)=C(C(=O)OC)Sc1c2ssc1=NC(C)(C)C`, the TGI in assay [1] is 3.48 µM; in assay [2] it was 4.01 µM; in assay [4] it was 3.15 µM; in assay [5], 3.44 µM; in [8], 3.27 µM; in assay [9], 3.34 µM.

On to `COc1ccc2nc3cc(Cl)ccc3c(NCCNc3c4ccc(Cl)cc4nc4ccc(OC)cc34)c2c1`, for which the GI50 is 1800 nM in [1]; 1720 nM in assay [2]; 1790 nM in [3]; 1960 nM in assay [4]; 1720 nM in assay [6]; 1100 nM in [7]. The values for the GI50 in assay [10] and in assay [8] were 1890 nM and 1970 nM, respectively. The TGI is 3.36 µM in assay [1]; 3.18 µM in [2]; 3.28 µM in assay [3]; 3.58 µM in assay [4]; 3.23 µM in assay [6]; 2.98 µM in assay [7]. The TGI was determined as 3.94 µM in [10] and 3.42 µM in assay [8].

As to `O=C(CSc1nc2ccccc2c(=O)n1-c1ccccc1)N=Nc1c(O)[nH]c2ccc(F)cc12`, the TGI in assay [2] turned out to be 3.46 µM; in assay [3] it was 4.75 µM; in [4] it was 4.57 µM; in [5] it was 4.79 µM; in assay [7] it was 15.2 µM; in assay [10], 3.97 µM. In addition, the TGI in assay [9] turned out to be 3.73 µM.

Turning to `O=c1c2ccccc2nc(N/N=C/c2ccccc2O)n1-c1ccccc1`, the TGI in [1] is over 100 µM; in assay [2], over 100 µM; in assay [3], over 100 µM; in assay [4], over 100 µM; in [5], over 100 µM; in assay [6], 74.7 µM. Further, the TGI in [7], in [8] and in [9] was over 100 µM in each case.

On to `NCCCNCCCCN1CC1`, for which the TGI in assay [1] was 2.14 µM; in [2], 0.407 µM; in assay [3], over 36.2 µM; in assay [4] it was over 22.6 µM; in [6], 11.4 µM; in assay [10], 1.02 µM. Besides, the TGI in assay [8] was over 23.2 µM; in [9], over 100 µM.

`CSc1scc2c1/C(=N/NC(N)=O)CCC2`: the TGI in assay [1], in [2], in assay [3], in assay [4], in assay [5] and in assay [7] was over 100 µM each time. Also, the TGI in assay [10], in assay [8] and in assay [9] was over 100 µM throughout.

As to `COc1cc(CS(=O)c2ccc(O)cc2)cc(OC)c1OC` (stereo unspecified), the TGI in assay [1], in assay [2], in assay [4], in assay [5], in [6] and in assay [7] was over 100 µM throughout. Besides, the TGI in assay [10], in assay [8] and in [9] was over 100 µM in each case.

`O=C1CC2CCC(C1)S2=O` (stereo unspecified): the TGI in assay [2], in [3], in assay [4], in assay [5], in [6] and in assay [7] was over 100 µM in each case. Further, the TGI in assay [10], in assay [8] and in [9] was over 100 µM each time.

As for `C=C1CN(C2=NCCO2)C1`, the TGI in [2], in assay [3], in assay [4], in assay [5], in assay [7] and in assay [10] was over 100 µM in each case. For the same compound, the TGI in [8] and in [9] was over 100 µM throughout.

Take `CC1=NN(c2nc(N)nc(CF)n2)C(C)(C)C1`: the TGI in assay [1], in [2], in assay [3], in [4], in assay [5] and in assay [7] was over 100 µM each time. Further, the TGI in assay [10], in assay [8] and in assay [9] was over 100 µM throughout.

Take `NC1CC=C(COC(=O)C(O)(c2ccccc2)C2CC2)CC1` (stereo unspecified): the TGI in [2], in assay [3], in assay [4], in assay [5], in [6] and in [7] was over 100 µM throughout. The TGI in assay [10], in [8] and in assay [9] was over 100 µM throughout.

For the compound `C=CC(C)(C)C(=C)C(=O)Nc1ccccc1I`, the TGI in assay [1], in [2], in [3], in [4], in assay [5] and in assay [7] was over 100 µM in each case. Besides, the TGI in [10] and in assay [9] was over 100 µM throughout.

In the case of `CCC[C@@H]1C(=O)N=C(N)N1C(=O)OCc1ccccc1`, the TGI in [1], in assay [2], in assay [3], in assay [5], in assay [6] and in assay [7] was over 100 µM throughout. In addition, the TGI in [8] and in assay [9] was over 100 µM in each case.

Consider `CCOC(=O)N1CCC(=C2c3ccc(Cl)cc3CCc3cccnc32)CC1`, for which the TGI in assay [1] was 8.12 µM; in assay [3], 23.6 µM; in [4], 29.1 µM; in assay [5], 42.5 µM; in assay [7], 34.6 µM; in [10], 35 µM. Further, the results for the TGI in [8] and in [9] were 29.3 µM and 4.49 µM, respectively.

Take `COc1ccc(C2=NN=C3C(c4ccccc4)=Nc4ccccc4N3C2)cc1`: the TGI in assay [1] was over 100 µM; in [3], over 100 µM; in assay [4] it was 83.8 µM; in assay [5], over 100 µM; in assay [7], over 100 µM; in [8], over 100 µM. In [9], this compound returned a TGI of 49.8 µM.

For the compound `CN(C)CCCNCc1cccc2ccccc12`, the TGI in assay [1], in assay [4], in assay [5], in assay [7], in assay [10] and in [8] was over 100 µM each time. The TGI in assay [9] is over 100 µM.

Regarding `NC(N)=NCCCC(NC(=O)OCCCCn1ccc(N)nc1=O)C(=O)O` (stereo unspecified), the TGI in [1], in [2], in assay [3], in [4], in assay [5] and in [7] was over 100 µM throughout. The TGI in [10], in assay [8] and in assay [9] was over 100 µM in each case.

Consider `CNc1ncnc2c1cnn2Cc1cn(COCC(O)CO)nn1` (stereo unspecified), for which the TGI in [1], in assay [2], in [3], in assay [4], in assay [5] and in assay [7] was over 100 µM each time. For the same compound, the TGI in assay [10], in assay [8] and in assay [9] was over 100 µM each time.

For the compound `CCOC(=O)c1c(-c2cccc3ccccc23)c(C#N)c(=S)n(C2OC(COC(C)=O)C(OC(C)=O)C(OC(C)=O)C2OC(C)=O)c1C` (stereo unspecified), the TGI in assay [1], in [3], in assay [4], in assay [5], in [6] and in assay [10] was over 100 µM each time. Moreover, the values for the TGI in [8] and in [9] were over 100 µM and 3.49 µM, respectively.

As for `COC(=O)c1c(O)ccc2c1c1c(n2Cc2ccccc2)C(=O)c2ccccc2C1`, the TGI in [1] was over 100 µM; in [2], 87.2 µM; in [4], over 100 µM; in assay [5] it was over 100 µM; in assay [7] it was over 100 µM; in assay [8], over 100 µM. This compound gave a TGI in assay [9] of over 100 µM.
